Reference: patent US20160002665A1, “[…] MALE STERILITY IN COMPOSITAE” (priority 2013, published 2016)

Experiments:
[1] = test system: mutant endive plant (Cichorium endivia), having a mutated version of the OPR3 gene; assay: Reversal of male sterility and pale flower color by treating young flower buds of homozygous OPR3 mutant endive; format: in vivo; settings: for restoration of male fertility in F2 generation: F2 of cross of endive of the invention x wild-type endive, treatment as described in Example 3; for overcoming male sterility caused by the opr3 mutation: homozygous mutant endive, application to flower buds; for flower color of flowers developed from treated flower buds / male fertility (pollen function and seed set through self-pollination): homozygous mutants, daily spraying with 200 μM (0.2 mM) aqueous solution with 0.025% Zipper surfactant; for flower color of flowers developed from treated flower buds: about 3.5 months, untreated or mock-treated flowers pale (FIG. 2); for male fertility (pollen function and seed set through self-pollination): controls remained male-sterile
Source text: A mutant endive plant (Cichorium endivia), having a mutated version of the OPR3 gene, was obtained by means of chemical mutagenesis and subsequent TILLING screening of about 10,000 M2 plants.
Phenotypically this mutant endive plant was indistinguishable from wild-type endive plants, when the mutation was present in a heterozygous state. […] The pollen grains that developed in such homozygous mutants were unable to germinate and therefore dysfunctional.
Blue was the wild-type flower color in this endive background.

[2] = test system: mutant lettuce plant (Lactuca sativa), having a mutated version of the OPR3 gene; assay: Reversal of male sterility by spraying young flower buds of homozygous OPR3 mutant lettuce; format: in vivo; settings: for restoration of male fertility in F2 generation: F2 of cross NCIMB 42060 x wild-type lettuce, treatment as described in Example 1; for seed production through selfing: inflorescences sprayed with 200 μM solution, compared with mock-treated control plants (FIG. 1)
Source text: A mutant lettuce plant (Lactuca sativa), having a mutated version of the OPR3 gene, was obtained by means of chemical mutagenesis and subsequent TILLING screening of about 3,000 M2 plants.
Phenotypically this mutant lettuce plant was indistinguishable from wild-type lettuce plants, when the mutation was present in a heterozygous state. […] The few pollen grains that developed in such homozygous mutants were not functional.
From the early bolting stage the inflorescences were sprayed 5 times per week, for a total of 3 weeks.

[3] = test system: Arabidopsis thaliana with mutations in the OPR3 gene; settings: treating flower buds; cited from earlier work

Structure (SMILES)	restoration of male fertility in F2 generation [1]	overcoming male sterility caused by the opr3 mutation [1]	restoration of male fertility in F2 generation [2]	flower color of flowers developed from treated flower buds [1]	flower color of flowers developed from treated flower buds ([1]; listed as MeJA)	male fertility (pollen function and seed set through self-pollination) [1]	male fertility (pollen function and seed set through self-pollination) ([1]; listed as MeJA)	effect of other application methods than spraying ([1]; solution painted onto the surface of young flower buds with a fine brush)	restoration of male fertility [3]	seed production through selfing ([2]; homozygous mutants)	seed production through selfing ([2]; homozygous mutants, listed as MeJA)	restoration of male fertility ([2]; homozygous mutants, young flower buds sprayed with 200 μM (0.2 mM) aqueous solution plus 0.025% Zipper surfactant, 5 times per week for 3 weeks)
CC/C=C\C[C@H]1C(=O)CC[C@@H]1CC(=O)O [jasmonic acid, (3R,7S)-jasmonic acid]	sufficient to restore male fertility	had the same effect	sufficient to restore male fertility	–	–	–	–	–	–	–	–	–
CC/C=C\CC1C(=O)CCC1CC(=O)OC (stereo not drawn) [methyl jasmonate]	sufficient to restore male fertility	could be overcome	sufficient to restore male fertility	changed to blue	developed into blue flowers	has become male-fertile	produced viable, functional pollen and were able to set seed through self-pollination	comparable effects	Male fertility could be restored	has produced seeds through selfing	produced seeds in a subset of their flowers	sufficient to restore male fertility
